According to patent US20070087344A1, “Methods for characterizing signaling pathways and compounds that interact therewith” (BIOSEEK, INC., priority 2003, published 2007):
“Also recorded” adds a separate entry of the source. Like-named read-outs stand apart in the source and are kept apart here.

Tests used:
Assay type in all cases: cell-based, human
[1] = system: RAS*, RAF* or MEK1* over-expressing cells; test: Profiles induced by over-expression of RAS*, RAF* or MEK1* genes
From the text: The pathway information developed by practice of the methods of the present invention facilitates the in-depth characterization (mechanism-of-action studies) of chemical compounds. […] A high throughput approach can be used to test a compound against genes from known signaling pathways, as well as genes of unknown pathway origin.

[2] = system: HUVEC cell lines over-expressing IKBKB; test: VCAM-1 expression (ELISA) in HUVEC over-expressing IKBKB
[3] = system: HUVEC cell lines over-expressing RELA; test: VCAM-1 expression (ELISA) in HUVEC over-expressing RELA
[4] = system: MYD88 over-expressing endothelial cells; test: Response to MYD88 over-expression in IL-1-beta-treated endothelial cells (VCAM-1, E-selectin); settings: IL-1-beta-treated cells; MYD88 inhibits VCAM-1 and E-selectin expression
Description: (§1) A. Grouping Genes into Signal Transduction Pathways by Gene Over-Expression. Genes encoding key elements of pro-inflammatory pathways (IL-1, TNF-alpha, CD40, and IFN-gamma), the core NFkB pathway, the PI3K/Akt pathway, and the RAS/RAF/MEK pathway (see Table 2) were introduced into endothelial cells by retroviral transduction and allowed to express their encoded proteins for 48 hours, substantially as described in Example 1. The gene-modified endothelial cells were then subjected to 24 hour cytokine stimulation.
(§2) Gene over-expression generally results in activation of the target pathway (in contrast to most pharmaceutical drugs, which are typically inhibitors).
(§3) To explore this observation further, we re-examined the response to MYD88 and genes encoding representative members of the RAS/MAPK and NFkB pathways (RAS* and TNFRSF1A, respectively) in all individual cell systems. […] By contrast, the response induced by MYD88 in IL-1-beta-treated cells was similar to that induced by RAS*, the main effect being to inhibit expression of the adhesion molecules VCAM-1 and E-selectin. Over-expression of MYD88 thus appears to stimulate the RAS/MAPK pathway under these conditions. […] MYD88 (and IRAK1) are known to be involved in IL-1-induced but not in TNF-induced signaling, and PD098059 indeed had no effect on VCAM-1 expression in TNF-alpha-treated cells. […]

[5] = system: RAS* over-expressing endothelial cells; test: Response to RAS* over-expression in IL-1-beta-treated endothelial cells (VCAM-1, E-selectin); settings: IL-1-beta-treated cells; RAS* inhibits VCAM-1 and E-selectin expression
Description: as §1, §2, §3

TNF-alpha-treated cells = test: VCAM-1 expression in TNF-alpha-treated endothelial cells
From the text: as §2
To explore this observation further, we re-examined the response to MYD88 and genes encoding representative members of the RAS/MAPK and NFkB pathways (RAS* and TNFRSF1A, respectively) in all individual cell systems. […] By contrast, the response induced by MYD88 in IL-1-beta-treated cells was similar to that induced by RAS*, the main effect being to inhibit expression of the adhesion molecules VCAM-1 and E-selectin. Over-expression of MYD88 thus appears to stimulate the RAS/MAPK pathway under these conditions. […] MYD88 (and IRAK1) are known to be involved in IL-1-induced but not in TNF-induced signaling, and PD098059 indeed had no effect on VCAM-1 expression in TNF-alpha-treated cells. Multi-system analysis can thus detect novel functional interrelationships between different signaling pathways.

[6] = system: HUVEC stimulated with IL-1-beta, TNF-alpha and IFN-gamma; test: Functional profiles in HUVEC stimulated with IL-1-beta, TNF-alpha and IFN-gamma compared with siRNA knock-down profiles; settings: E-selectin, HLA-DR, ICAM-1, IL-8, MCP-1, MIG, VCAM-1 readouts
From the text: The cells used to generate functional profiles were HUVEC stimulated with a mixture of cytokines IL-1beta+TNF-alpha+IFN-gamma, and the readout parameters were E-selectin, HLA-DR, ICAM-1, IL-8, MCP-1, MIG and VCAM-1. Statistical analysis (permutation method) and generation of a two-dimensional map was done as described above.
Early passage (<5) exponentially growing HUVEC cells were harvested, washed once with PBS, and resuspended at 2×10^6 cells in 100 microliter Nucelofection solution (Human Umbilical Vein Endothelial Cell Nucleofector Kit, AMAXA, Koeln, Germany). SiRNA (15 microliter of a 20 micromolar solution; Dharmacon, Lafayette, Colo.) was added to the cell suspension, transferred into an electroporation cuvette, and electroporated using the U-1 setting on an AMAXA Nucleofector device. The cell suspension was then transferred into a separate tube containing 3 ml of complete EGM-2 media (Clonetics), incubated at 37° C. for 10 minutes, and plated into 96-well microtiter plates (25,000 cells/well) for cytokine activation and ELISA analysis as described above. Statistical analyses and pairwise correlation analyses of functional profiles obtained by gene knock-down were performed in the manner as described for the gene-over-expression approach described above.

[7] = system: HUVEC cell lines over-expressing TNF-alpha; test: VCAM-1 expression (ELISA) in HUVEC over-expressing TNF-alpha
[8] = system: Endothelial cells over-expressing single genes from NFkB, PI3K/Akt, RAS/MAPK or JAK/STAT pathways; test: Compound profiling in 20 gene over-expression assays (NFkB, PI3K/Akt, RAS/MAPK, JAK/STAT), pairwise Pearson correlation; settings: DRB 10 micromolar, Apigenin 6 micromolar, 24 hours
Description: Endothelial cells expressing 16 individual genes from NFκB, RAS, PI3K/AKT and JAK/STAT (IFN-γ and IL-4) pathways were treated with compounds for 24 hours. Where indicated additional cytokines were added to cells to reveal activity of the over-expressed genes (e.g. AKT1/IL1 means that IL-1-beta was added to AKT-over-expressing cells). Parameters measured were VCAM-1 for NFκB, PI3K, and RAS/MAPK pathway genes, HLA-DR for JAK/STAT(IFNγ) pathway genes, and VCAM-1 (IL4/VCAM-1) and Eotaxin-3 (IL4/Eot3) for JAK/STAT(IL4) pathway. […] Statistically significant correlations (permutation method described further in the text and in Example 1B) in the table are shaded (dark grey for correlation coefficients in the range of 0.75 to 1, and light grey for the range of 0.55 to 0.75).
With a permutation technique, an average distribution of the correlation coefficients that will be obtained by chance is constructed and the values of the correlations that correspond to a required level of significance are obtained. The original similarity matrix is filtered using these values, thus providing a consistent way of identifying correlations coefficients with potential biological significance. This method also allows calculation of a false positive rate, providing the user with a way of balancing “hit rate” and stringency of correlation significance. […]

Structure (SMILES): N#CC(=C(/N)Sc1ccccc1N)/C(C#N)=C(/N)Sc1ccccc1N [Uo126]
- Effect on profiles induced by RAS*, RAF* or MEK1* genes [1]: affected

Structure (SMILES): CC(Cc1ccc(O)c(O)c1)C(C)Cc1ccc(O)c(O)c1 (stereo not shown) [NDGA, nordihydroguaiaretic acid]
- Inhibition of IKBKB induced VCAM-1 expression [2]: not IKBKB or RELA induced VCAM-1 expression; also recorded: inhibits only the TNF-alpha gene
- Inhibition of RELA induced VCAM-1 expression [3]: not IKBKB or RELA induced VCAM-1 expression; also recorded: inhibits only the TNF-alpha gene

Structure (SMILES): COc1cccc(-c2cc(=O)c3ccccc3o2)c1N [PD098059]
- Effect on the response induced by MYD88 over-expression [4]: reversed the effect
- Effect on the response induced by RAS* over-expression [5]: reversed the effect
- Effect on VCAM-1 expression (TNF-alpha-treated cells): no effect
- Effect on profiles induced by RAS*, RAF* or MEK1* genes ([1]; gene over-expressing cells): affected

Structure (SMILES): Oc1ccc(-c2nc(-c3ccncc3)c(-c3ccc(F)cc3)[nH]2)cc1 [SB202190]
- Similarity of functional profile to siRNA-mediated dual knock-down of MEK3 and 6 [6]: similar

Structure (SMILES): CC(C)Cc1ccc(C(C)C(=O)O)cc1 (stereo not shown) [ibuprofen]
- Inhibition of TNF-alpha induced VCAM-1 expression [7]: inhibits TNF-alpha and IKBKB genes
- Inhibition of IKBKB induced VCAM-1 expression [2]: inhibits TNF-alpha and IKBKB genes
- Inhibition of RELA induced VCAM-1 expression [3]: not in RELA over-expressing cells

Structure (SMILES): O=c1cc(-c2ccc(O)cc2)oc2cc(O)cc(O)c12 [apigenin]
- Overlap of functional profile with those of 17-MG and beta-zearalenol [8]: only in the JAK/STAT portion of the overall profile

Structure (SMILES): OC[C@H]1O[C@@H](n2cnc3cc(Cl)c(Cl)cc32)[C@H](O)[C@@H]1O [DRB]
- Overlap of functional profile with those of 17-MG and beta-zearalenol [8]: only in the JAK/STAT portion of the overall profile
